This note sets out measurements from ChEMBL document CHEMBL1135196, “4-Aminoarylguanidine and 4-aminobenzamidine derivatives as potent and selective urokinase-type plasminogen activator inhibitors” (Bioorg Med Chem Lett, 2002).

The target in one assay is Prothrombin (Homo sapiens, UniProt P00734). The assay is described as follows: Inhibition of thrombin.
Assay [1] deals with T1, Tissue-type plasminogen activator (Homo sapiens, UniProt P00750). The assay is described as follows: Activation of plasminogen.
T1 sequence (P00750 whole entry): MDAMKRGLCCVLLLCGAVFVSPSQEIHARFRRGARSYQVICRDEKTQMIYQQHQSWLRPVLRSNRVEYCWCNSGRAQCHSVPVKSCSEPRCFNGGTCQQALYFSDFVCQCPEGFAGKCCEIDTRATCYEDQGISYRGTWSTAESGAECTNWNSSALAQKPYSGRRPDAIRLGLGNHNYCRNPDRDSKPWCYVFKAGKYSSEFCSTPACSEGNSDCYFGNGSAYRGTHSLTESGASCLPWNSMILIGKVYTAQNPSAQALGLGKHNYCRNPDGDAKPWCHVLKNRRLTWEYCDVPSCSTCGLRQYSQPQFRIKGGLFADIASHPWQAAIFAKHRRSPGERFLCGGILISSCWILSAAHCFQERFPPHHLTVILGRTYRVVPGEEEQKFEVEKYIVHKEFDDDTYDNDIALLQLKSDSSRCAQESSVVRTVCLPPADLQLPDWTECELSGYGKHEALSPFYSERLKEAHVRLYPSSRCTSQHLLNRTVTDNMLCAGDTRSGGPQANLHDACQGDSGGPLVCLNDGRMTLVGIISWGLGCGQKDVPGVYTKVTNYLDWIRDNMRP
Assay [2] addresses Urokinase-type plasminogen activator (Homo sapiens, UniProt P00749).
Description: Inhibition of urokinase-type plasminogen activator (microPa)
The next assay deals with Plasminogen (Homo sapiens, UniProt P00747). The assay is described as follows: Inhibition of plasmin.
Sequence of Plasminogen (P00747 97-580 limits assumed): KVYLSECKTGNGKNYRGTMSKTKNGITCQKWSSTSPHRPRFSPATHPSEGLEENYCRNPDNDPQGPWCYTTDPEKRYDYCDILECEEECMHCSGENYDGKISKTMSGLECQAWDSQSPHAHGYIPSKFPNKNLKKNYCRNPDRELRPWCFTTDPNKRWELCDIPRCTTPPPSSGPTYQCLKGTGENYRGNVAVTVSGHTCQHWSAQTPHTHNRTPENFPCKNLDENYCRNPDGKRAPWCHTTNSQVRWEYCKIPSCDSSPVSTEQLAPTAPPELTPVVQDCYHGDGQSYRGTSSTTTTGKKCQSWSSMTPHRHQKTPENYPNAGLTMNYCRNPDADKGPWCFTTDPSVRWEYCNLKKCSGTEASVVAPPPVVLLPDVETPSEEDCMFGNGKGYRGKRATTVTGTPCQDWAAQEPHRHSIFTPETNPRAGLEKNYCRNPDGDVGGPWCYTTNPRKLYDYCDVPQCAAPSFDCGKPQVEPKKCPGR
Sequence of Plasminogen (P00747 581-810 limits assumed): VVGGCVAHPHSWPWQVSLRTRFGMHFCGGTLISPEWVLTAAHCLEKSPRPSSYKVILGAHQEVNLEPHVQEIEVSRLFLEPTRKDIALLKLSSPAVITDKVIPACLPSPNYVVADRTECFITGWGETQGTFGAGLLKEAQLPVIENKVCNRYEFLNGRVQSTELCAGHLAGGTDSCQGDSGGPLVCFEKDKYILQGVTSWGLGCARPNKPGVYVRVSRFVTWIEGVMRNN
Assay [3] has as its target T2, Coagulation factor X (Homo sapiens, UniProt P00742). Put plainly: The compound was evaluated to inhibit the Coagulation factor X.
Assay [4] concerns the target T1, Tissue-type plasminogen activator. Put plainly: Activation of tissue plasminogen.
For assay [5], the target named is T2, Coagulation factor X. Put plainly: Inhibition of coagulation factor X.

Broadly, the Ki is a dissociation constant, usually derived from enzyme kinetics or from competition with a known ligand. Low readings indicate a stronger hold on the target, high ones a looser hold on the target.

T2 sequence (P00742 41-179 limits assumed): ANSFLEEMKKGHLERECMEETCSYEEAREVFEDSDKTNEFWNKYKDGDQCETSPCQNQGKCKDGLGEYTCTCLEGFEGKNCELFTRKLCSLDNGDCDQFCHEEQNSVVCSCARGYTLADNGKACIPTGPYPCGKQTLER
T2 sequence (P00742 235-488 limits assumed): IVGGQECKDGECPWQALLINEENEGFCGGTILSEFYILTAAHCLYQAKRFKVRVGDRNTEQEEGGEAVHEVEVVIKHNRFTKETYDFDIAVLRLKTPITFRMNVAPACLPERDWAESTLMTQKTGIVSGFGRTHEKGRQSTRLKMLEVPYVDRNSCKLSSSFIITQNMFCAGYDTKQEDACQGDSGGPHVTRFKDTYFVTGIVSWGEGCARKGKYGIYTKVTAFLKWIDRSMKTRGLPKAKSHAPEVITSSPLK

`N=C(N)c1ccc(NC(=O)c2ccc(Cl)cc2O)cc1`: the Ki was 9.5 µM on Prothrombin; 2.4 µM in assay [1]; 6 µM in assay [2]; 27 µM at Plasminogen; 2.8 µM on Coagulation factor X [3].
Take `NC(N)=Nc1ccc(NC(=O)c2cccc(-c3ccccc3)c2O)cc1`: the Ki on Prothrombin is more than 450 µM; in assay [4], more than 95 µM; at Coagulation factor X [5] it was more than 470 µM.
`N=C(N)c1ccc(NC(=O)c2cccc(-c3ccccc3)c2O)cc1`: the inhibitory constant (Ki) on Prothrombin stood at 120 µM; in assay [1] it was 53 µM; in assay [2] it was 8.5 µM; at Coagulation factor X [5], 188 µM.
Take `NC(N)=Nc1ccc(NC(=O)c2ccc(Cl)cc2O)cc1`: the Ki is more than 450 µM at Prothrombin, more than 95 µM in assay [4] and more than 470 µM at Coagulation factor X [5].
`Cc1cc(I)c(O)c(C(=O)Nc2ccc(C(=N)N)c(F)c2)c1`: the Ki in assay [1] came to 1.7 µM; on Coagulation factor X [5], 0.52 µM.
Take `NC(N)=Nc1ccc(NC(=O)c2cccc(Cl)c2O)cc1`: the Ki at Prothrombin was more than 450 µM; in assay [4] it was more than 95 µM; on Coagulation factor X [5] it was 470 µM.
As for `NC(N)=Nc1ccc(NC(=O)c2ccccc2O)cc1`, the Ki at Prothrombin was more than 450 µM; in assay [1], more than 95 µM; at Plasminogen, more than 75 µM; at Coagulation factor X [5], 104 µM.
As to `N=C(N)c1ccc(NC(=O)c2cccc(Cl)c2O)cc1`, the Ki on Prothrombin was found to be 1 µM; in assay [1], 1.5 µM; in assay [2], 0.6 µM; at Coagulation factor X [5] it was 1 µM.
On to `CC(C)Oc1c(O)c(C(=O)Nc2ccc(NC(=N)N)cc2)cc2ccccc12`, for which the inhibitory constant (Ki) was more than 450 µM at Prothrombin, more than 563 µM in assay [4] and 240 µM on Coagulation factor X [5].
`Cc1cccc(C(=O)Nc2ccc(C(=N)N)cc2)c1O`: the inhibitory constant (Ki) was found to be 8 µM on Prothrombin; 3.9 µM in assay [1]; 1.7 µM in assay [2]; 18 µM on Plasminogen; 5.7 µM on Coagulation factor X [5].
As for `CCOc1ccc(C(=O)Nc2ccc(C(=N)N)cc2)c(O)c1`, the inhibition constant (Ki) on Prothrombin was 34 µM; in assay [1], 2 µM; in assay [2] it was 0.65 µM; on Coagulation factor X [3] it was 37 µM.
Turning to `Cc1cccc(C(=O)Nc2ccc(NC(=N)N)cc2)c1O`, the Ki on Prothrombin is more than 450 µM; in assay [4], more than 95 µM; at Coagulation factor X [5] it was 350 µM.
For `N=C(N)Nc1ccc(NC(=O)c2cc3ccccc3c(I)c2O)cn1`, the Ki at Prothrombin is 310 µM; on Plasminogen it was more than 75 µM; on Coagulation factor X [5], 68 µM.
On to `N=C(N)Nc1ccc(NC(=O)c2cc3ccccc3c(I)c2O)cc1`, for which the inhibition constant (Ki) is more than 450 µM at Prothrombin, more than 75 µM on Plasminogen, more than 95 µM in assay [4] and more than 470 µM on Coagulation factor X [5].
As for `Cc1cc(Br)c(O)c(C(=O)Nc2ccc(C(=N)N)cc2)c1`, the figures for the Ki (on Prothrombin; in assay [1]; at Coagulation factor X [5]) were 0.28 µM, 0.36 µM and 0.44 µM, respectively.
For `COc1ccc(O)c(C(=O)Nc2ccc(C(=N)N)cc2)c1`, the Ki on Prothrombin came out at 12 µM; in assay [1], 9.4 µM; in assay [2] it was 3.1 µM; at Coagulation factor X [3] it was 5.2 µM.
As to `NC(N)=Nc1ccc(NC(=O)c2cc(Br)ccc2O)cc1`, the Ki is more than 450 µM at Prothrombin, more than 95 µM in assay [1] and more than 470 µM on Coagulation factor X [5].
For the compound `N=C(N)c1ccc(NC(=O)c2cc(Br)ccc2O)cc1`, the Ki at Prothrombin is 29 µM; in assay [1], 21 µM; on Coagulation factor X [3] it was 15 µM.
Consider `Cc1ccc(O)c(C(=O)Nc2ccc(C(=N)N)cc2)c1`, for which the Ki at Prothrombin amounted to 14 µM; in assay [1], 6.9 µM; in assay [2], 2.6 µM; on Coagulation factor X [3], 9.4 µM.
With `N=C(N)c1ccc(NC(=O)c2cc([N+](=O)[O-])ccc2O)cc1`, the Ki at Prothrombin came out at 185 µM; in assay [1] it was 94 µM; in assay [2], 44 µM; at Coagulation factor X [3], 99 µM.
On to `[H]/N=C(/N)c1ccc(NC(=O)c2cc(C)cc(I)c2O)cc1Cl`, for which the Ki on Prothrombin worked out at 245 µM; in assay [1], 256 µM; at Coagulation factor X [5], 115 µM.
In the case of `CCOc1ccc(C(=O)Nc2ccc(NC(=N)N)cc2)c(O)c1`, the Ki was more than 450 µM on Prothrombin; 10 µM in assay [2]; more than 75 µM at Plasminogen; more than 95 µM in assay [4]; more than 470 µM at Coagulation factor X [5].
Take `N=C(N)Nc1ccc(NC(=O)c2cc3ccccc3c(Br)c2O)cc1`: the Ki at Prothrombin was more than 450 µM; on Plasminogen, more than 75 µM; in assay [4], more than 95 µM; on Coagulation factor X [5] it was more than 470 µM.
Consider `Cc1ccc(C(=O)Nc2ccc(C(=N)N)cc2)c(O)c1`, for which the Ki was 10 µM on Prothrombin; 3.6 µM in assay [1]; 1 µM in assay [2]; 6 µM on Plasminogen; 2.3 µM on Coagulation factor X [5].
As for `Cc1cc(I)c(O)c(C(=O)Nc2ccc(C(=N)N)cc2)c1`, the Ki on Prothrombin was 0.38 µM; in assay [1] it was 0.24 µM; at Plasminogen it was 0.29 µM; on Coagulation factor X [5], 0.46 µM.
As for `Cc1cc(I)c(O)c(C(=O)Nc2ccc(NC(=N)N)cc2)c1`, the inhibition constant (Ki) is more than 450 µM on Prothrombin; 8.5 µM in assay [2]; more than 75 µM at Plasminogen; more than 563 µM in assay [4]; more than 470 µM on Coagulation factor X [5].
As for `Cc1ccc(C(=O)Nc2ccc(NC(=N)N)cc2)c(O)c1`, the inhibition constant Ki was more than 450 µM at Prothrombin, more than 95 µM in assay [4] and more than 470 µM on Coagulation factor X [5].
Take `N=C(N)Nc1ccc(NC(=O)c2cc([N+](=O)[O-])ccc2O)cc1`: the Ki on Prothrombin was 315 µM; in assay [1] it was more than 95 µM; in assay [2], more than 75 µM; at Coagulation factor X [5], more than 470 µM.
On to `COc1ccc(O)c(C(=O)Nc2ccc(NC(=N)N)cc2)c1`, for which the Ki is more than 450 µM at Prothrombin, 20 µM in assay [2], more than 95 µM in assay [4] and more than 470 µM at Coagulation factor X [5].
As for `Cc1cc(Br)c(O)c(C(=O)Nc2ccc(NC(=N)N)cc2)c1`, the Ki at Prothrombin was determined as 125 µM; on Plasminogen, 205 µM; in assay [4] it was 258 µM; on Coagulation factor X [5] it was 151 µM.
Regarding `N=C(N)Nc1ccc(NC(=O)c2cc3ccccc3c(Br)c2O)cn1`, the Ki at Prothrombin was 330 µM; at Plasminogen it was more than 75 µM; at Coagulation factor X [5], 235 µM.
As for `N=C(N)c1ccc(NC(=O)c2ccccc2O)cc1`, the Ki at Prothrombin came out at 22 µM; in assay [2] it was 2.7 µM; on Plasminogen, 90 µM; at Coagulation factor X [3], 12 µM; in assay [4], 10 µM.
For `Cc1ccc(O)c(C(=O)Nc2ccc(NC(=N)N)cc2)c1`, the Ki was more than 450 µM on Prothrombin, more than 95 µM in assay [1], more than 75 µM on Plasminogen and more than 470 µM on Coagulation factor X [5].
